Experimental data taken from article PMC4870705, “Topical Delivery of Protein and Peptide Using Novel Cell Penetrating Peptide IMT-P8” (Scientific Reports, 2016).
“Also recorded” adds a separate entry of the source.

Columns and labels:
HeLa cells [1] = assay: Cell viability assay (MTT); assay type: cell-based, human; settings: 24 h, serum containing medium; for Cell viability (MTT): HeLa, unlabeled peptide 0, 5, 10 and 20 μM, 37 °C
Procedure: (§1) Figure 3 Cell viability assay. (A) HeLa, (B) PC3 and (C) MDA-MB-231 cells were incubated with increasing concentrations (5, 10, and 20 μM) of peptides in serum containing medium at 37 °C for 24 h. Cell viability was measured by MTT assay. Viability of only cells (without peptide) was taken as 100% and viabilities of cells treated with increasing concentration of peptides were plotted as percentage of control.
(§2) Cell viability was determined by MTT assay. Briefly, cells (HeLa, PC3 and MDA-MB-231) were seeded at a density of 5 × 10^3 cells/well in 96-well microtiter plates in medium supplemented with 10% FBS 24 h before the start of the experiment. Cells were incubated with different concentrations (5, 10, and 20 μM, respectively) of unlabeled peptides for 24 h. […] At the end of the incubation period, cell growth was assayed by the addition of 20 μl of MTT (5 mg/mL; Sigma-Aldrich) to each well, and plate was incubated at 37 °C for 4 h. Later, the medium was removed carefully, 200 μl DMSO was added and mixed, and the absorbance was read at 570 nm with a microplate reader (Bio-Rad). The survival of cells relative to the control (cells incubated with growth medium containing no peptide) was calculated by taking the ratio of the absorbance at 570 nm values. All the experiments were performed in triplicates.

MDA-MB-231 cells = assay: Cell viability assay (MTT); assay type: cell-based, human; settings: unlabeled peptide 5, 10 and 20 μM, 24 h, serum containing medium
Procedure: as §1, §2

PC3 cells = assay: Cell viability assay (MTT); assay type: cell-based, human; settings: unlabeled peptide 5, 10 and 20 μM, 24 h, serum containing medium
Procedure: as §1, §2

HeLa cells [2] = assay: Confocal laser scanning microscopy, intracellular localization in live cells; settings: FITC-labeled peptide 2.5 μM, 30 min, 37 °C
Procedure: Cells were washed with PBS thrice and live cells were imaged. Scale bars are 10 μm.
Cells were not fixed to avoid artifactual localization of the internalized peptide. At the end of the incubation period, culture medium was removed, and coverslips were washed thoroughly with PBS for 3–5 minutes (thrice) and mounted on glass slides with the antifade reagent.
Thereafter, cells were washed with PBS thrice and immediately examined using the confocal microscope.

| Sequence | Cell viability (MTT) (HeLa cells [1]) | Cell viability (MTT) at 20 μM (HeLa cells [1]; unlabeled peptide 20 μM, HeLa (text says all cell lines examined)) | Cell viability (MTT) (MDA-MB-231 cells) | Cell viability (MTT) (PC3 cells) | Internalization / fluorescence in cells by CLSM (HeLa cells [2]) |
| --- | --- | --- | --- | --- | --- |
| RRWRRWNRFNRRRCR [IMT-P8, novel human protein-derived arginine-rich cell-penetrating peptide (Institute of Microbial Technology-Peptide 8), 15 aa] | not effective at any concentration tested | – | – | – | – |
| KLAKLAKKLAKLAKRRWRRWNRFNRRRCR [IMT-P8-KLA, fusion peptide of KLA and IMT-P8, 29 aa] | dose-dependent decrease in cell viability; also recorded: caused significant cell death | significant decrease in cell viability | dose-dependent decrease in cell viability | dose-dependent decrease in cell viability | – |
| KLAKLAKKLAKLAK [reference compound] | not effective at any concentration tested | – | – | – | no fluorescence |
